Measured values: patent US6627653B2, “Anticonvulsant derivatives useful for the treatment of depression” (Ortho-McNeil Pharmaceutical, Inc., priority 2000, dated 2003)
Where two headings read alike, the source gives them in different places.

Legend:
[1] = Clinical case study, Example 2: topiramate add-on therapy; format: in vivo, human; details: for previous pharmacological treatment of patient's depression, outcome: treatment history of the Example 2 patient
Procedure: Initially the patient was started on topiramate add-on therapy at 25 mg/day, with increased dosage to 150 mg/day over the course of one month, in response to the patient's clinical behavior (the patient experienced suicidal ideation). One month later, the topiramate therapy was further increased to 300 mg/day, with the patient also taking 20 mg/day methylphenidate and 150 mg/day venlafaxine.

[2] = adjunctive therapy or monotherapy; cited from earlier work
[3] = animal model of kindled epilepsy; cited from earlier work
[4] = Clinical case study, Example 1: topiramate added to existing pharmacotherapy; format: in vivo, human
Procedure: In the first case, the patient was a person who had suffered from depression for 25 years.
Topiramate was prescribed for the patient as add-on therapy to existing treatment of venlafaxine at 225 mg/day and mirtazapine at 30 mg/day. Topiramate treatment was initiated at 25 mg/day, with increased dosage to 150 mg/day. […] After six months, mirtazapine was withdrawn and topiramate daily dosage increased to 200 mg/day.
Following one year, topiramate and venlafaxine were withdrawn because of a surgical procedure. […] The patient was subsequently restarted on topiramate at 300 mg/day.

[5] = several rodent models of epilepsy; cited from earlier work

Compound	previous pharmacological treatment of patient's depression, outcome [1]	patient-reported state ([1]; after three month of treatment)	mood state ([1]; at eight months of therapy, venlafaxine 150 mg/day and topiramate 300 mg/day)	clinical rating of depression ([1]; topiramate 300 mg/day with methylphenidate 20 mg/day and venlafaxine 150 mg/day, about two months)	efficacy in treating seizures [2]	block of seizures [3]	clinical evaluation of depression ([4]; after eight months, topiramate 300 mg/day)	clinical evaluation of depression ([4]; after six months, mirtazapine withdrawn, topiramate 200 mg/day)	clinical evaluation of depression ([4]; after two months, topiramate 150 mg/day add-on to venlafaxine 225 mg/day and mirtazapine 30 mg/day)	patient-reported state after restart ([4]; restarted on topiramate 300 mg/day after relapse, following six months of treatment)	block of seizures [5]
N[C@@H]1C[C@H]1c1ccccc1 (racemic) [tranylcypromine]	unsuccessful	–	–	–	–	–	–	–	–	–	–
CN(C)CCC=C1c2ccccc2CCc2ccccc21 [amitriptyline]	unsuccessful	–	–	–	–	–	–	–	–	–	–
CC1(C)O[C@@H]2[C@@H](CO[C@@]3(COS(N)(=O)=O)OC(C)(C)O[C@@H]23)O1 [topiramate, 2,3:4,5-bis-O-(1-methylethylidene)-β-D-fructopyranose sulfamate]	–	never felt so well	normothymic	much improved	effective	effectively block seizures	very much improved	very much improved	very mild depressive	feeling very well	effectively block seizures
